From patent US9302999B2, “Substituted triazoles as herbicides” (E. I. DU PONT DE NEMOURS AND COMPANY, priority 2012, dated 2016)

What was measured:
Assay type in all cases: in vivo
[1] = tested on: barnyardgrass (Echinochloa crus-galli); assay: Test A pre-/postemergence: barnyardgrass; conditions: for Barnyardgrass plant response rating: Postemergence; for Plant response rating, Barnyardgrass: Preemergence
Method in brief: (§1)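 Soil medium was loam blended with sand; treatments pre- and postemergence were applied concurrently, postemergence at one- to two-leaf stage. Approximately ten days in greenhouse preceded visual comparison with untreated controls, scored 0 (no effect) to 100 (complete control).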

[2] = tested on: crabgrass, large (large crabgrass, Digitaria sanguinalis); assay: Test A pre-/postemergence: crabgrass, large; conditions: for Crabgrass, Large plant response rating: Postemergence; for Plant response rating, Crabgrass, Large: Preemergence
Method in brief: as §1

[3] = tested on: morningglory (Ipomoea spp.); assay: Test A pre-/postemergence: morningglory
Method in brief: as §1

[4] = tested on: pigweed (Amaranthus retroflexus); assay: Test A pre-/postemergence: pigweed
Method in brief: as §1

[5] = tested on: rice (Oryza sativa); assay: Test B flooded paddy: rice; conditions: Flood; 250 g ai/ha; applied to paddy water at 2-leaf stage; visually evaluated after 13 to 15 days
Method in brief: (§2)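 Each compound is applied to the floodwater of pots holding 2-leaf seedlings, water standing 3 cm over the soil throughout. Plants stay in a greenhouse 13 to 15 days before visual scoring against controls from 0 (no effect) to 100 (complete control).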

[6] = tested on: barnyardgrass (Echinochloa crus-galli); assay: Test B flooded paddy: barnyardgrass; conditions: Flood; 250 g ai/ha; applied to paddy water at 2-leaf stage; visually evaluated after 13 to 15 days
Method in brief: as §2

[7] = tested on: blackgrass (Alopecurus myosuroides); assay: Test C pre-/postemergence: blackgrass
Method in brief: (§3)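 Visual injury scored 0–100 (100 = complete control) against untreated controls after 13–15 greenhouse days. Surfactant-containing solvent formulations applied either to soil after sowing (loam/sand) or over 1- to 4-leaf plants, 2–18 cm tall.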

[8] = tested on: lambsquarters (Chenopodium album); assay: Test C pre-/postemergence: lambsquarters
Method in brief: as §3

[9] = tested on: ragweed (common ragweed, Ambrosia elation); assay: Test C pre-/postemergence: ragweed
Method in brief: as §3

[10] = tested on: soybean (Glycine max); assay: Test C pre-/postemergence: soybean
Method in brief: as §3

[11] = 125 g ai/ha, 0 to 100 scale, 0 is no effect, 100 is complete control
[12] = 500 g ai/ha, visual rating on 0 to 100 scale (0 no effect, 100 complete control), approximately ten days
[13] = 125 g ai/ha, 0 to 100 scale (0 no effect, 100 complete control)
[14] = 500 g ai/ha, 0 to 100 scale, 0 is no effect, 100 is complete control
[15] = Postemergence, 125 g ai/ha, 0 to 100 scale, 0 is no effect, 100 is complete control
[16] = Postemergence, 500 g ai/ha, visual rating on 0 to 100 scale (0 no effect, 100 complete control), approximately ten days
[17] = Preemergence, 125 g ai/ha, 0 to 100 scale (0 no effect, 100 complete control)
[18] = Postemergence, 31 g ai/ha, scale 0 to 100 (0 no effect, 100 complete control)
[19] = Postemergence, 62 g ai/ha, scale 0 to 100 (0 no effect, 100 complete control)
[20] = Postemergence, 125 g ai/ha, scale 0 to 100, 0 no effect, 100 complete control
[21] = Postemergence, 250 g ai/ha, scale 0 to 100
[22] = 125 g ai/ha, 0 to 100 scale where 0 is no effect and 100 is complete control
[23] = 500 g ai/ha, 0 to 100 scale (0 no effect, 100 complete control)
[24] = Preemergence, 125 g ai/ha, 0 to 100 scale where 0 is no effect and 100 is complete control
[25] = Preemergence, 500 g ai/ha, 0 to 100 scale (0 no effect, 100 complete control)
[26] = Preemergence, 31 g ai/ha, scale of 0 to 100, 0 is no effect, 100 is complete control
[27] = Preemergence, 62 g ai/ha, scale of 0 to 100, 0 is no effect, 100 is complete control
[28] = Preemergence, 125 g ai/ha, scale 0 to 100, 0 no effect, 100 complete control
[29] = Preemergence, 250 g ai/ha, scale 0 to 100, 0 no effect, 100 complete control

## FC(F)(F)c1ccc(-n2nc(Cl)c(Cc3ccnc(C(F)(F)F)c3)n2)cc1 [Compound 28]
[1]; [11]
  Barnyardgrass plant response rating: 70
[1]; [12]
  Barnyardgrass plant response rating: 90
[1]; [13]
  Plant response rating, Barnyardgrass: 50
[1]; [14]
  Plant response rating, Barnyardgrass: 90
[2]; [11]
  Crabgrass, Large plant response rating: 70
[2]; [12]
  Crabgrass, Large plant response rating: 90
[2]; [13]
  Plant response rating, Crabgrass, Large: 30
[2]; [14]
  Plant response rating, Crabgrass, Large: 90
[3]; [15]
  Morningglory plant response rating: 100
[3]; [16]
  Morningglory plant response rating: 100
[3]; [17]
  Plant response rating, Morningglory: 20
[4]; [15]
  Pigweed plant response rating: 100
[4]; [16]
  Pigweed plant response rating: 100
[4]; [17]
  Plant response rating, Pigweed: 100
[4]; Preemergence, 500 g ai/ha, 0 to 100 scale, 0 is no effect, 100 is complete control
  Plant response rating, Pigweed: 100
[5]
  Plant response rating, Rice (0 to 100 scale, 0 is no effect, 100 is complete control): 80
[6]
  Plant response rating, Barnyardgrass (0 to 100 scale, 0 is no effect, 100 is complete control): 90
[7]; [18]
  Plant response rating, Blackgrass: 10
[7]; [19]
  Plant response rating, Blackgrass: 10
[7]; [20]
  Plant response rating, Blackgrass: 55
[7]; [21]
  Plant response rating, Blackgrass: 60
[8]; [18]
  Plant response rating, Lambsquarters: 35
[8]; [19]
  Plant response rating, Lambsquarters: 35
[8]; [20]
  Plant response rating, Lambsquarters: 95
[8]; [21]
  Plant response rating, Lambsquarters: 95
[9]; [18]
  Plant response rating, Ragweed: 35
[9]; [19]
  Plant response rating, Ragweed: 60
[9]; [21]
  Plant response rating, Ragweed: 85
[10]; [18]
  Plant response rating, Soybean: 30
[10]; [19]
  Plant response rating, Soybean: 35
[10]; [20]
  Plant response rating, Soybean: 35
[10]; [21]
  Plant response rating, Soybean: 60

## COc1nn(-c2ccc(C(F)(F)F)cc2)nc1Cc1ccnc(C(F)F)c1 [Compound 138]
[1]; [11]
  Barnyardgrass plant response rating: 90
[1]; [12]
  Barnyardgrass plant response rating: 90
[1]; [22]
  Plant response rating, Barnyardgrass: 90
[1]; [23]
  Plant response rating, Barnyardgrass: 100
[2]; [11]
  Crabgrass, Large plant response rating: 90
[2]; [12]
  Crabgrass, Large plant response rating: 90
[2]; [22]
  Plant response rating, Crabgrass, Large: 90
[2]; [23]
  Plant response rating, Crabgrass, Large: 90
[3]; [15]
  Plant response rating, Morningglory: 100
[3]; [16]
  Morningglory plant response rating: 100
[3]; [24]
  Plant response rating, Morningglory: 70
[3]; [25]
  Plant response rating, Morningglory: 90
[4]; [15]
  Plant response rating, Pigweed: 100
[4]; [16]
  Pigweed plant response rating: 100
[4]; [24]
  Plant response rating, Pigweed: 100
[4]; [25]
  Plant response rating, Pigweed: 100
[5]
  Plant response rating, Rice (0 to 100 scale, 0 is no effect, 100 is complete control): 50
[6]
  Plant response rating, Barnyardgrass (0 to 100 scale, 0 is no effect, 100 is complete control): 80
[7]; [18]
  Plant response rating, Blackgrass: 20
[7]; [19]
  Plant response rating, Blackgrass: 40
[7]; [20]
  Plant response rating, Blackgrass: 40
[7]; [21]
  Plant response rating, Blackgrass: 45
[7]; [26]
  Plant response rating, Blackgrass: 90
[7]; [27]
  Plant response rating, Blackgrass: 95
[7]; [28]
  Plant response rating, Blackgrass: 95
[7]; [29]
  Plant response rating, Blackgrass: 95
[8]; [18]
  Plant response rating, Lambsquarters: 100
[8]; [19]
  Plant response rating, Lambsquarters: 100
[8]; [20]
  Plant response rating, Lambsquarters: 100
[8]; [21]
  Plant response rating, Lambsquarters: 100
[8]; [26]
  Plant response rating, Lambsquarters: 95
[8]; [27]
  Plant response rating, Lambsquarters: 98
[8]; [28]
  Plant response rating, Lambsquarters: 98
[8]; [29]
  Plant response rating, Lambsquarters: 98
[9]; [18]
  Plant response rating, Ragweed: 75
[9]; [19]
  Plant response rating, Ragweed: 80
[9]; [20]
  Plant response rating, Ragweed: 85
[9]; [21]
  Plant response rating, Ragweed: 85
[9]; [26]
  Plant response rating, Ragweed: 40
[9]; [27]
  Plant response rating, Ragweed: 45
[9]; [28]
  Plant response rating, Ragweed: 50
[9]; [29]
  Plant response rating, Ragweed: 50
[10]; [18]
  Plant response rating, Soybean: 55
[10]; [19]
  Plant response rating, Soybean: 70
[10]; [20]
  Plant response rating, Soybean: 80
[10]; [21]
  Plant response rating, Soybean: 80
[10]; [26]
  Plant response rating, Soybean: 5
[10]; [27]
  Plant response rating, Soybean: 20
[10]; [29]
  Plant response rating, Soybean: 30
